Measurements from patent US9623083B2, “Method to screen for an activator of adipose-resident NK cells” (Cornell University, priority 2011, dated 2017).

What was measured:
[1] = system: adipose-resident NKT cells; assay: In vivo effectiveness as activator of adipose-resident NKT cells
[2] = system: M2 genes in adipose tissue; assay: Q-PCR analysis of M1 and M2 genes in white adipose tissue; type: in vivo, mice
Experimental: RNA extraction from cells and murine tissues, and Q-PCR were carried out as previously described (36) using Trizol (Invitrogen) for liver, and Trizol plus QIAeasy kit (Qiagen) for adipose tissues with DNase digestion (Roche). Q-PCR data collected on the Roche LightCycler 480 were normalized to ribosomal 132 gene in the corresponding sample.
(§1) Accordingly, 6 w-old male mice were fed with either 13% LFD or 60% HFD for indicated period of time from 4 d to 24 w as described in Example 1. αGalCer (Toronto Research Chemicals) was dissolved in pyridine at 2.5 mg/ml and then diluted 1:250 in PBS to prepare 10 μg/ml working solution prior to use. In all experiments, mice were injected i.p. with 200 μl αGalCer (100 ng αGalCer per g body weight). The vehicle control group was injected with PBS with 0.4% pyridine. The dosage and frequency of αGalCer injection were the same for all the gain-of-function experiments unless otherwise indicated. HFD mice were injected with αGalCer or vehicle at day 0 and day 2. GTT was conducted on day 4, followed by sacrificing the mice on (day 5) to harvest adipose tissues (or other tissues as indicated), which were processed for immune cell analysis, frozen for Q-PCR or Western blot, or fixed for H&E staining Flow cytometric analyses of NKT levels and other immune cells were performed on day 5.

[3] = system: Arg1 protein, p-Y STAT6; assay: Western blot of Arg1 and p-Y STAT6 in WAT and liver; type: in vivo, mice
Experimental: Tissues or cells were lysed in Tris-based lysis buffer containing 1% Triton X-100. Normally, 15-30 μg of total lysates unless otherwise indicated were used in a mini SDS-PAGE as described (Sha et al. (2009) Cell Metab 9, 556-564). Antibodies specific for (p-Tyr641) STATE and (p-Tyr705) STAT3 (Cell signaling) and Arginase 1 (N-20, Santa Cruz sc-18351) were used at 1:500-2000 and for the loading control HSP90 (Santa Cruz) was used at 1:6000. The secondary antibody goat anti-rabbit IgG HRP (1:10,000) was from Bio-Rad. Quantitation of band density was carried out using the ImageLab software of the Bio-Rad ChemiDoc XRS+system following exposure.
as §1

[4] = system: NKT cells in adipose tissue; assay: Flow cytometric analysis of immune cells in adipose tissue after αGalCer challenge; type: in vivo, mice
Experimental: Single-cell suspensions of stromal vascular cells (SVC) from adipose tissue were prepared as described (Xia et al. (2011)). SVCs from two fat pads per mouse were diluted in 120-200 μl PBS, from which one tenth was used for the subsequent staining Following incubation with anti-CD16/CD32 antibody to block Fc receptors, 1×10^6 cells were incubated with 20 μl of antibodies diluted at optimal concentrations for 20 min at 4° C. Cells were washed three times with PBS and then resuspended in 200 μl PBS for analysis using the FACSCalibur Flow Cytometer (BD Biosciences). NKT cells were defined as CD45^+αGalCer-loaded CD1d-tetramer^+CD3/TCRβ^+ lymphocytes; CD8^+ T cells were defined as CD8^+CD45^+ cells; macrophages were as CD45^+F4/80^+CD11b^+ cells. During the run, samples were completely run out and the total number of CD45^+ lymphocytes or immune cells were gated and counted. The total cell number for various immune cells per g adipose tissue was calculated as (% cells in total CD45^+ lymphocytes or immune cells×total CD45^+ lymphocytes or immune cells)/g adipose tissue.
For the Brdu staining, mice were injected (i.p.) with αGalCer (100 ng per g body weight) at day 0, and then with BrdU (Sigma, 0.6 mg/10 g body weight) at 36 h and 12 h prior to sacrifice at day 3. SVC of adipose tissues were purified, labeled with cell surface antibodies and then fixed in cold 70% ethanol at −20° C. overnight. The rest of steps were performed as the regular flow cytometric analysis using BrdU-FITC antibody and DNA dye 7-AAD (Anaspec).
as §1

[5] = Glucose tolerance test (GTT) after αGalCer injection; type: in vivo, mice
Experimental: as §1
(§2) For GTT, mice were fasted for 16-18 h followed by injection of glucose (Sigma) at 1 g/kg body weight. Blood glucose was monitored using One-Touch Ultra Glucometer. Fasting insulin levels were measured following a 6 h fast.

[6] = Fasting insulin levels (ELISA); type: in vivo; conditions: 8 w HFD mice, FIG. 6D
Experimental: Blood was collected in animals upon 6 h fasting during the day. Circulating insulin levels were measured using the kit from Millipore per supplier's protocols.
as §2

[7] = one injection of αGalCer, Ohmura et al. (2010); cited from earlier work
[8] = Body and epididymal fat weights; type: in vivo; conditions: HFD mice, FIG. 4B
Experimental: as §1

[9] = system: cells surrounding adipocytes; assay: H&E histology of adipose tissue; type: in vivo, mice; conditions: WT, 4 d HFD, FIG. 3D; abolished by CD1d deficiency
Experimental: Adipose tissues were fixed in 4% formaldehyde, embedded in paraffin and sectioned by the Cornell Histology Core Facility. Pictures were taken using the Axiovert 200M microscope (Zeiss).
as §1

[10] = system: gene expression in WAT; assay: Microarray analysis of WAT; type: in vivo, mice; conditions: 4 d HFD
Experimental: Microarray analyses of WAT were performed as described (39) with four groups of mice (n=3-4 per cohort) as follows: WT+veh, WT+αGalCer, CD1d^−/−+veh and CD1d^−/−+αGalCer. All mice were on 4 d HFD feeding with two αGalCer injections at day 0 and day 2. […] Data have been deposited into the GEO datasets (GSE36032). The array data of IL-4-treated mouse BMDM for 10 days were obtained from the Gene Expression Omnibus (GEO) database with accession number GSE25088 (Szanto A. et al. (2010)).

[11] = literature (Berzins 2011; Giaccone 2002); cited from earlier work

## CCCCCCCCCCCCCCCCCCCCCCCC(=O)NC(COC1O[C@H](CO)[C@H](O)[C@H](O)[C@H]1O)C(O)C(O)CCCCCC (stereo partly shown) [OCH, tetracosanoic acid 1-galactopyranosyloxy-3,4-dihydroxydec-2-yl amide]
[1]
  effectiveness in vivo: not effective in vivo

## CCCCCCCCCCCCCCCCCCCCCCCCCC(=O)N[C@@H](CO[C@H]1O[C@H](CO)[C@H](O)[C@H](O)[C@H]1O)[C@H](O)[C@H](O)CCCCCCCCCCCCCC [αGalCer, (2S,3S,4R)-1-O-(alpha-D-galactosyl)-N-hexacosanoyl-2-amino-1,3,4-octadecanetriol]
[2]; 4 d HFD, NKT-dependent, FIG. 9F
  Il4 mRNA levels in WAT: highly induced
[2]; 4 day HFD, vs WT control littermates, FIG. 12C
  αGalCer-mediated induction of M2 genes in WAT of myeloid cell-specific PPARγ or PPARβ/δ-deficient animals: not affected
[2]; IL-4-/- mice, 4 d HFD, FIG. 11D-F
  αGalCer-mediated induction of M2 genes Arg1, Chi3l3, Pdcd1Ig2 and Arg1 protein in WAT with loss of IL-4: markedly attenuated
[2]; all three HFD models, NKT-dependent, FIGS. 7A-B and 8A
  induction of a subset of M2 genes (Arg1, Chi313, Pdcd1Ig2) in adipose tissue: 50-100 fold
[3]; CD1d-/- mice, FIG. 7C-D
  Arg1 protein in CD1d-/- WAT: abolished
[3]; IL-4-/- mice, 4 d HFD, FIG. 11E-F
  tyrosine phosphorylation (p-Y) of STAT6 in WAT following αGalCer with loss of IL-4: completely abolished
[3]; WT mice, HFD, FIG. 7C-D
  Arg1 protein in WT WAT: significantly induced
[3]; liver of WT mice, 4 d HFD, FIG. 11G
  hepatic STAT6 activation: not activated
[3]; liver, 4 d or 8 w HFD, FIG. 8B
  Arg1 protein induction in the liver: not observed in the liver
[4]; 4 d HFD mice, FIG. 5A
  macrophages and CD8+ T cells in adipose tissue: milder increases
[4]; 4 d HFD mice, αGalCer 100 ng per g body weight i.p. day 0 and day 2, FIG. 3C
  increase in percentage of NKT cells in adipose tissue: > 4 fold
[4]; 4 d HFD mice, αGalCer i.p. day 0 and day 2, FIG. 5A
  increase in total cell number of NKT cells in adipose tissue: 70 fold
[4]; 4 d HFD, FIG. 12B
  reduction of total lymphocytes in WAT of IL-4-/- mice relative to WT cohorts after αGalCer: approximately 40%
[5]; CD1d-/- mice, 4 d HFD, FIG. 6E
  effect on glucose tolerance in CD1d-/- mice: no effect
[5]; IL-4-/- mice, 4 d HFD, FIG. 11B-C
  αGalCer effect in glucose tolerance in IL-4-/- mice: completely abolished
[5]; WT mice at all stages of HFD (4 d, 8 w, 24 w), FIGS. 6A-C
  systemic glucose tolerance: improved systemic glucose tolerance
[5]; WT mice on LFD, FIG. 6F
  effect on glucose tolerance in mice on LFD: no effect on glucose tolerance
[6]
  effect on fasting insulin levels: no effect
[7]
  effect on glucose tolerance in HFD animals: mild effect
[8]
  effect on body and epididymal fat weights: no discernible effect
[9]
  number of cells surrounding adipocytes in WAT sections: significant increase
[10]; WT vs CD1d-/-, NKT-dependent, FIG. 9A
  number of genes whose expression was significantly increased by more than 2-fold in WAT: 1,556 genes
[10]; microarray, FIG. 9B
  Arg1 expression, αGalCer vs. veh in WT WAT: 32 fold
  Chi313 expression, αGalCer vs. veh in WT WAT: 138 fold
  pdcd1Ig2 expression, αGalCer vs. veh in WT WAT: 53 fold
[11]
  tolerability in humans: well tolerated
  toxicity: not toxic
